Experimental data as given in paper PMC8219897 (Water Research X, 2021).
Values after ≈ are worked out from the molar mass of the structure shown. Where two headings read alike, the source gives them in different places.

Tests used:
[1] = molecular target: T1, human estrogen receptor alpha (ERα) (Homo sapiens, UniProt P03372); test: Yeast estrogen screen; format: cell-based; conditions: for Estrogenic effects in single testing (in words): single compounds, Figure SI 5B
T1 sequence (P03372 1-595): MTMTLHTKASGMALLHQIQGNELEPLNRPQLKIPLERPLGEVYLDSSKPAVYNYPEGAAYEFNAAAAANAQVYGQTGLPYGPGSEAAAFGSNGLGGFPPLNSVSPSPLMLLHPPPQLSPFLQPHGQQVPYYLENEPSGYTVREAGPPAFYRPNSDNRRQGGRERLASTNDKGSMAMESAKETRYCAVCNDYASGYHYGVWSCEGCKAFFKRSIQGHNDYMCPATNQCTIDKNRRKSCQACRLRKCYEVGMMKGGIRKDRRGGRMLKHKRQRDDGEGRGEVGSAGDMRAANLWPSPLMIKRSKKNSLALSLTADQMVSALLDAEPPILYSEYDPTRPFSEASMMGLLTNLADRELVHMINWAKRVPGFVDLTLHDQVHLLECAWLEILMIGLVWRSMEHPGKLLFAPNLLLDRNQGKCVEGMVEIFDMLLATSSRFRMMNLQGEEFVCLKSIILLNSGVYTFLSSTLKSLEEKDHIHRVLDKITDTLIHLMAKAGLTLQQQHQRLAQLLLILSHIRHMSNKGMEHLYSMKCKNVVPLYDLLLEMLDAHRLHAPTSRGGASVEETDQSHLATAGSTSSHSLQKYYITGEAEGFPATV

aquatic life = conditions: proposed by ECHA; ref ECHA; cited from earlier work
[2] = aqueous solution, pseudo-first-order kinetic; ref Kovacic et al. 2019; cited from earlier work
ERα = conditions: read-out: IC50, competitive binding to ERα; ref Nakagawa and Suzuki 2001; cited from earlier work
Aliivibrio fischeri = format: cell-based; conditions: present study
zebrafish embryos = conditions: ref McCormick et al. (2011); cited from earlier work
[3] = muscle, liver and gill tissue of wild fish, Panlong River; ref Wang et al. 2016; cited from earlier work
[4] = system: human placental JEG-3 cells; conditions: read-out: EC50, cytotoxic effects, ref Perez-Albaladejo et al. (2019); cited from earlier work
P450 aromatase = conditions: JEG-3 cells, at 20 µM; ref Perez-Albaladejo et al. (2019); cited from earlier work
[5] = system: estrogen-related receptor; conditions: recombined yeast strains; ref Li et al. (2010); cited from earlier work
MCF-7 cells = conditions: read-out: EC50, estrogen-like effects, ref Kitamura et al. 2005; cited from earlier work
NIH3T3 cells = conditions: read-out: EC50, anti-androgenic effects, ref Kitamura et al. 2005; cited from earlier work
[6] = leachates of UV irradiated coating B

Which “Estrogenic effects in single testing (in words)” value [1] does the source give for `CC(C)(c1ccc(OCC(O)CO)cc1)c1ccc(OCC(O)CO)cc1` (stereo not drawn) [Bis-HPPP, bisphenol A bis(2,3-dihydroxypropyl) ether] here?
Its value is “not estrogenic”.

Which results are given for `CC(C)(c1ccc(O)cc1)c1ccc(O)cc1` [BPA, bisphenol A]?
Mean contribution to estrogenicity of the quantified substances (toxic units) ([1]; leachates of UV irradiated coating A): 3%; Mean contribution to estrogenicity of the quantified substances (toxic units) [1, 6]: 16%; Predicted no effect concentration (PNEC), freshwater (aquatic life): 18 µg/L; Predicted no effect concentration (PNEC), freshwater sediments (aquatic life): 1.2 µg/g dry weight; Half-life time of degradation under UV irradiation [2]: about 6 h; IC50 (ERα): 10 µM

With `COc1ccc(C(C)(C)c2ccc(O)cc2)cc1` [BPA-I11, 4-[1-(4-methoxyphenyl)-1-methylethyl]phenol] as the compound, how does the “Potency compared to BPA in the luminescent bacteria assay” value (Aliivibrio fischeri) read?
The value was “more potent”.

And the EC50 [1]?
Its EC50 is 666 nM.

And the “Mean contribution to estrogenicity of the quantified substances (toxic units)” value [1, 6]?
Its value is 2%.

What about the “Half maximal lethal concentration” value (zebrafish embryos) of the same compound?
Its value is “up to 0.66 mg/l”.

Which “Potency compared to BPA in the luminescent bacteria assay” value (Aliivibrio fischeri) does the source give for `CC(C)(c1ccccc1)c1ccc(O)cc1` [4CP, 4-cumylphenol] here?
Its value is “more potent”.

And the EC50 [1]?
Its EC50 is 212 nM.

And the “Mean contribution to estrogenicity of the quantified substances (toxic units)” value [1, 6]?
Its value is 1%.

What about the “Predicted no effect concentration (PNEC), freshwater” value (aquatic life) of the same compound?
Its value is 14.2 µg/L.

What about the “Predicted no effect concentration (PNEC), freshwater sediments” value (aquatic life) of the same compound?
The value was 3.58 µg/g dry weight.

And the “Bioconcentration factor (BCF)” value [3]?
Its value is “up to 10”.

And the EC50 [4]?
The EC50 was 65 µM.

And the “Increase of P450 aromatase activity” value (P450 aromatase)?
Its value is 1.3 fold.

Which “Estrogenic effects in single testing (in words)” value [1] does the source give for `Oc1ccccc1-c1ccccc1` [2PP, 2-phenylphenol] here?
The value was “showed estrogenic potential”.

For `CC(C)(C)c1ccccc1O` [2-tert-butylphenol], which “Effect on estrogen-related receptor gamma” value [5] is on record?
Its value is “inverse agonistic effects”.

Which results are given for `CC(C)(c1ccc(O)cc1)c1ccc(O)c(O)c1` [BPA-I10, 5-hydroxybisphenol A]?
EC50 ([1]; read-out: EC50, yeast estrogen screen, single compound, present results): 31000 nM; EC50, yeast estrogen screen ([1]; single compound, present results): 7.5 mg/L (≈ 30.7 µM); Estrogenic effects in single testing (in words) [1]: showed estrogenic potential; IC50 (ERα): 50 µM; EC50 (MCF-7 cells): 1800 nM; EC50 (NIH3T3 cells): 14 µM
